A word on the Km: it is the substrate concentration at which the rate is half of its maximum.

The test system of the assay is T1, carbohydrate oxidase from M. nivale (Microdochium nivale CBS 100236, SEQ ID NO: 2), wild type.
T1 construct: made in house
Kind of assay: Steady state kinetics (apparent Km) by the 4AA-TOPS assay. The conditions noted are these: apparent value from Lineweaver-Burke plot, simple Michaelis-Menten kinetics assumed, carbohydrate substrate concentration varied, phosphate/citrate pH 6. The class given is biochemical. Here is the method:
Assays are carried out in 96 well microtiter plates. 100 µl 0.1 M phosphate/citrate, pH 6 is mixed with 50 µl 0.24 M glucose and 50 µl pre-mix (3 mM 4-aminoantipyrine (4AA), 7 mM N-ethyl-N-sulfopropyl-m-toluidine (TOPS), 40 PODU/ml rCiP) and the reaction is started by adding 40 µl of oxidase solution diluted appropriately. Absorption is measured at 490 nm as a function time using the Vmax microtiter plate ready from Molecular Devices and the activity is taken as the slope of the linear increase in absorption.
Steady state kinetics was conducted by varying the concentration of the carbohydrate substrates and determining the carbohydrate oxidase activity by the 4AA-TOPS assay. Simple Michaelis-Menten kinetics was assumed although the reaction is not a simple one substrate-one product mechanism (E+S↔ES↔E+P).
The steady state kinetics for the carbohydrate oxidase from M. nivale were investigated using some of the preferred substrates. Kinetic constants were obtained from a Lineweaver-Burke plot, assuming simple Michaelis-Menten kinetics (although this is a rather poor assumption) to obtain apparent values "Km" and "Vmax" for various substrates.
Regarding `O=C[C@H](O)[C@@H](O)[C@H](O[C@@H]1O[C@H](CO)[C@@H](O)[C@H](O)[C@H]1O)[C@H](O)CO` [Cellobiose], the Km stood at 59 mM. The figure for `OC[C@H]1OC(O)[C@H](O)[C@@H](O)[C@@H]1O` (stereo partly drawn) [Glucose] is 42 mM. Consider `OC[C@H]1O[C@H](O[C@H]2[C@H](O)[C@@H](O)C(O)O[C@@H]2CO)[C@H](O)[C@@H](O)[C@@H]1O` (mixture of isomers) [Maltose], for which the Michaelis constant (Km) is 11 mM.

The values are drawn from EP1525798B1, “Carbohydrate oxidase and use thereof in baking” (Novozymes A/S, priority 1997, dated 1999).
